The text below walks through data of patent US10471010B2, “Liposomal corticosteroids for treatment of inflammatory disorders in humans” (ENCELADUS PHARMACEUTICALS B.V., priority 2011, dated 2019).

Assay [1] concerns rats with adjuvant-induced arthritis. Put plainly: Rat adjuvant-induced arthritis, paw inflammation scores. In kind it is in vivo, Lewis rats. The note with it: for effect on the course of the disease: single injection, equal dose (10 mg/kg), 10 mg/kg. How it is done: Lewis rats were immunized subcutaneously at the tail base with heat-inactivated Mycobacterium tuberculosis in incomplete Freund's adjuvant. […] Assessment of the disease was performed by visually scoring paw inflammation severity, maximum score 4 per paw, and measuring disease-induced body weight loss. The therapeutic efficacy of liposomal prednisolone phosphate on these variables was compared with equal doses unencapsulated drug. Rats were treated when the average score >6 (at day 14 or 15 after disease induction).

The conditions of assay [2]: potency of prednisolone set to 1; cited from earlier work.

Consider `C[C@]12C=CC(=O)C=C1CC[C@@H]1[C@@H]2[C@@H](O)C[C@@]2(C)[C@H]1CC[C@]2(O)C(=O)COP(=O)(O)O` [Unencapsulated prednisolone phosphate, prednisolone phosphate], for which the average inflammation scores entry in assay [1] (20 mg/kg daily for 7 days, day 15 until day 21, from average 6.5 on day 14) was “around 5.0”. The “effect of repeated daily treatment” value in assay [1] (repeated daily treatment) is given as “short-lasting moderate effect”. Further, the “effect on the course of the disease” value is given as “did not significantly alter the course of the disease” in assay [1] and “not effective” in assay [1] (listed as free prednisolone).
In the case of `CC(=O)OCC(=O)[C@@]1(O)CC[C@H]2[C@@H]3CCC4=CC(=O)CC[C@]4(C)[C@@]3(F)[C@@H](O)C[C@@]21C` [fludrocortisone acetate], the “potency ratio as compared to prednisolone” value in assay [2] is reported as 3.5.
With `C[C@]12C=CC(=O)C=C1CC[C@H]1[C@@H]3C[C@@H](O)[C@](O)(C(=O)CO)[C@@]3(C)C[C@H](O)[C@@]12F` [triamcinolone], in assay [2], the “potency ratio as compared to prednisolone” value was 1.25.
